Reference: patent US6833372B2, “Non-peptide GnRH agents, Pharmaceutical compositions, and methods for their use” (Pfizer, Inc., priority 2002, dated 2004)
In brackets after ≈: the same amount, converted by molar mass.

How the values were obtained:
[1] = In vitro metabolism: disappearance of parent compound in human liver microsomes; assay type: in vitro ADME; details: 5 uM compound, 0.5 mg/ml protein, 2 mM NADPH, 30 minutes 37° C.
Method: (§1) Human, rat, dog, and monkey liver microsomes were isolated by differential centrifugation. Specimens of human liver were obtained from the International Institute for the Advancement of Medicine (Scranton, Pa.). The disappearance of the parent compound was studied in a mixture containing 5 uM compound, 0.5 mg/ml microsomal protein, and 2 mM NADPH in 50 mM K phosphate buffer, pH 7.4. Samples were incubated for 30 minutes at 37° C. The reaction was terminated by the addition of acetonitrile and compounds analyzed by LC-MS as described above.

[2] = molecular target: T1, rat GnRH receptor (Rattus norvegicus, UniProt P30969); assay: Radioligand binding: inhibition of 125I-GnRH-A binding to rat GnRH receptor (rat pituitary membranes); details: read-out: Ki (nM), Inhibition Binding of 125I-GnRH-A to GnRH Receptors
T1 construct: or rat pituitaries (Pel Freez Biologicals, Rogers, Ark.) were homogenized; tissue Pel Freez Biologicals; host or cells: rat pituitaries (membrane preparation)
T1 sequence (P30969 1-327): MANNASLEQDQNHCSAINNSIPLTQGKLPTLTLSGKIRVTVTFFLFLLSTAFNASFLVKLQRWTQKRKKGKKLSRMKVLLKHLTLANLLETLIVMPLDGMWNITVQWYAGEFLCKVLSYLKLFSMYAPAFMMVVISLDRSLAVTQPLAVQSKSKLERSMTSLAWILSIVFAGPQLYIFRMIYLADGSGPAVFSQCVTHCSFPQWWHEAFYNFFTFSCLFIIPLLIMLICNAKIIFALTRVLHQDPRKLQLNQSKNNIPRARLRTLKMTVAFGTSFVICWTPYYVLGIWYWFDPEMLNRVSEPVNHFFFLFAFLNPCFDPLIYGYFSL
Method: HEK 293 cells containing mouse or human receptors, or rat pituitaries (Pel Freez Biologicals, Rogers, Ark.) were homogenized in buffer A containing: 50 mM Tris (pH 7.4), 0.32 M sucrose, 2 mM EGTA, 1 mM PMSF, 5 μg/ml aprotinen, 5 μg/ml Pepstatin A, and 1 μg/ml leupeptin. Homogenized cells were centrifuged at 4° C. at 20,000×g for 25 minutes, re-suspended in buffer A and re-centrifuged at 4° C. at 20,000×g for an additional 25 minutes. Total membrane protein was determined with a BCA kit (Pierce, Rockford, Ill.). Membranes were stored at −70° C. at a final membrane protein concentration of approximately 5 mg/ml.
The radioiodinated agonist analog of GnRH, [des-Gly^10,D-Ala^6]GnRH ethylamide (^125I-GnRH-A), was used as the radioligand. […] The reaction mixture was vortexed and incubated for 1 minute at room temperature. After one minute, the mixture was vortexed and allowed to incubate for an additional minute. 2 ml of 0.5 M acetic acid/1% BSA was added to the reaction tube and the mixture was added to a C18 Sep-Pak cartridge. The cartridge was washed with subsequent washes of 5 ml H2O and 5 ml 0.5 M acetic acid and then eluted with 5×1 ml of 60% CH3CN/40% 0.5 M acetic acid. The eluate was diluted with 3× volume of HPLC buffer A (0.1% TFA in H2O) and loaded onto a C18 column. The iodinated product was eluted over 20-25 min with a gradient of 25-100% CH3CN containing 0.1% TFA. The radioactive fractions (750 μl/fraction) were collected into clean polypropylene tubes containing 100 μl of 10% BSA. Fractions were assessed for biological activity by radioligand binding. Specific activity of the radioligand was approximately 2200 Ci/mmol.
Membranes were diluted to 0.01-0.5 mg/ml (depending upon the species of receptor) with assay buffer containing 50 mM HEPES (pH 7.4), 1 mM EDTA, 2.5 mM MgCl2, and 0.1% BSA. Membranes (diluted to utilize similar receptor numbers between assays) were incubated with approximately 0.04-0.06 nM ^125I-GnRH-A in the presence or absence of competing agents (0.1-10,000 nM) in a total volume of 200 μl in 96-well polypropylene plates for 1 hour at room temperature. Assays were stopped by rapid filtration onto 96-well GF/C filters soaked in 0.1% polyethylenimine (PEI) utilizing a Packard 96-well cell harvester. Filters were washed three times with ice-cold PBS (50 mM NaPO4, 0.9% NaCl, 2 mM MgCl2, and 0.02% NaN3, pH 7.4). 35 μl of scintillation cocktail was added to each filter well and filters were counted on a Packard Topcount. Control dose-response curves were generated to GnRH (0.1 nM-100 nM) in each competition binding experiment. Ki values were calculated from IC50 values according to Cheng et al., Biochemical Pharmacol. 22: 3099-3108, 1973. [formula]

[3] = molecular target: T2, human GnRH receptors (Homo sapiens, UniProt P30968); assay: Radioligand binding: inhibition of 125I-GnRH-A binding to human GnRH receptor membranes; details: HEK 293 cell membranes
T2 construct: expressed in transfected cells; host or cells: HEK 293 cells, stably transfected; membranes
T2 sequence (P30968 1-328): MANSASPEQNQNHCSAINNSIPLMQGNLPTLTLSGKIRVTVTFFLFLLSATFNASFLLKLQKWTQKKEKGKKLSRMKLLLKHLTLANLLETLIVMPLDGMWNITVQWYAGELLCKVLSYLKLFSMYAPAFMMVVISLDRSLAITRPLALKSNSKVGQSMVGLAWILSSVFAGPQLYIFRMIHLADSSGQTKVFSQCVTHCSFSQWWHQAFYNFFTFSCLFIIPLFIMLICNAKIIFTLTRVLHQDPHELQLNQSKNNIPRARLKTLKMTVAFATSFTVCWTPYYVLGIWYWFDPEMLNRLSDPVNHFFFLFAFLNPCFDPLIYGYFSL
Summary of the method: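 Membranes from rat pituitaries, or HEK 293 cells stably expressing mouse or human receptor, incubated 1 hour at room temperature with ~0.04-0.06 nM radioligand (HEPES pH 7.4, EDTA, MgCl2, BSA) and competitor at 0.1-10,000 nM. Bound ligand collected by GF/C filtration and counted; Ki derived from IC50 by Cheng-Prusoff.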

[4] = In vitro metabolism: disappearance of parent compound in rat liver microsomes (male, female); assay type: in vitro ADME; details: 5 uM compound, 30 minutes 37° C.; for Fem. Rat (FR) % rem. 30′: female rat liver microsomes; for Male Rat (MR) % rem. 30′: male rat liver microsomes
Method: as §1

[5] = In vitro metabolism: disappearance of parent compound in monkey liver microsomes; assay type: in vitro ADME; details: 5 uM compound, 30 minutes 37° C.
Method: as §1

[6] = In vitro metabolism: disappearance of parent compound in dog liver microsomes; assay type: in vitro ADME; details: 5 uM compound, 30 minutes 37° C.
Method: as §1

[7] = Solubility at pH2 and pH6; assay type: physicochemical; details: pH 6, aqueous buffer, pH6; read-out: Solubility μg/ml pH6

Compound	Human % rem. 30′ [1]	Ki [2]	Ki [3]	Fem. Rat (FR) % rem. 30′ [4]	Male Rat (MR) % rem. 30′ [4]	Monkey % rem. [5]	Dog % rem. 30′ [6]	solubility [7]
COc1nc(NCCN2CCOCC2)nc(OC)c1NC(=O)c1ccc(Cc2cc3c(cc2C)C(C)(C)OC3(C)C)o1 [Example D4, N-{4,6-dimethoxy-2-[(2-morpholin-4-ylethyl)amino]pyrimidin-5-yl}-5-[(1,1,3,3,6-pentamethyl-1,3-dihydro-2-benzofuran-5-yl)methyl]-2-furamide]	83%	4.1 nM	6 nM	76%	38%	2%	34%	
COc1nc(NCCCN2CCOCC2)nc(OC)c1NC(=O)c1ccc(Cc2cc3c(cc2C)C(C)(C)CCC3(C)C)o1 [Example B4, 5-(3,5,5,8,8-Pentamethyl-5,6,7,8-tetrahydro-naphthalen-2-ylmethyl)-furan-2-carboxylic Acid [4,6-dimethoxy-2-(3-morpholin-4-yl-propylamino)-pyrimidin-5-yl]-amide]	38%	0.4 nM	0.5 nM	100%	38%	0%	26%	2.5 µg/mL (≈ 4.13 µM)
COc1nc(N(CCCN2CCCCC2)CCCN2CCCCC2)nc(OC)c1NC(=O)c1ccc(Cc2cc3c(cc2C)C(C)(C)OC3(C)C)o1 [Example D21, N-{2-[Bis(3-piperidin-1-ylpropyl)amino]-4,6-dimethoxypyrimidin-5-yl}-5-[(1,1,3,3,6-pentamethyl-1,3-dihydro-2-benzofuran-5-yl)methyl]-2-furamide]	89%	1.3 nM	3.3 nM	89%	87%	85%	67%	
COc1nc(NCCCCN(C)C)nc(OC)c1NC(=O)c1ccc(Cc2cc3c(cc2C)C(C)(C)OC3(C)C)o1 [Example D11, N-(2-{[4-(Dimethylamino)butyl]amino}-4,6-dimethoxy-pyrimidin-5-yl)-5-[(1,1,3,3,6-pentamethyl-1,3-dihydro-2-benzofuran-5-yl)methyl]-2-furamide]	62%	0.5 nM	1.1 nM	56%	42%	20%	56%	
COc1nc(NCCN(C)C)nc(OC)c1NC(=O)c1ccc(Cc2cc3c(cc2C)C(C)(C)OC3(C)C)o1 [Example D10, N-(2-{[2-(Dimethylamino)ethyl]amino}-4,6-dimethoxypyrimidin-5-yl)-5-[(1,1,3,3,6-pentamethyl-1,3-dihydro-2-benzofuran-5-yl)methyl]-2-furamide]	77%	2.6 nM	7.3 nM	79%	66%	28%	66%	
COc1nc(NCCN2CCCCC2)nc(OC)c1NC(=O)c1ccc(Cc2cc3c(cc2C)C(C)(C)OC3(C)C)o1 [Example D6, N-{4,6-Dimethoxy-2-[(2-piperidin-1-ylethyl)amino]pyrimidin-5-yl}-5-[(1,1,3,3,6-pentamethyl-1,3-dihydro-2-benzofuran-5-yl)methyl]-2-furamide]	77%	0.86 nM	1.2 nM	90%	74%	8%	77%	
COc1nc(N(CCCN)CCCN)nc(OC)c1NC(=O)c1ccc(Cc2cc3c(cc2C)C(C)(C)OC3(C)C)o1 [Example D16, N-{2-[Bis(3-aminopropyl)amino]-4,6-dimethoxypyrimidin-5-yl}-5-[(1,1,3,3,6-pentamethyl-1,3-dihydro-2-benzofuran-5-yl)methyl]-2-furamide]	76%	1.1 nM	6.5 nM	95%	34%	66%	97%	
COc1nc(NCCCN2CCCCC2)nc(OC)c1NC(=O)c1ccc(Cc2cc3c(cc2C)C(C)(C)OC3(C)C)o1 [Example D22, N-(4,6-Dimethoxy-2-{[3-piperidin-1-ylpropyl)amino]-pyrimidin-5-yl}-5-[(1,1,3,3,6-pentamethyl-1,3-dihydro-2-benzofuran-5-yl)methyl]-2-furamide]	66%	0.3 nM	0.96 nM	94%	69%	5%	87%	
COc1nc(NCCN2CCNCC2)nc(OC)c1NC(=O)c1ccc(Cc2cc3c(cc2C)C(C)(C)OC3(C)C)o1 [Example D14, N-{4,6-Dimethoxy-2-[(2-piperazin-1-ylethyl)amino]-pyrimidin-5-yl}-5-[(1,1,3,3,6-pentamethyl-1,3-dihydro-2-benzofuran-5-yl)methyl]-2-furamide]	86%	0.4 nM	3.5 nM	90%	78%	63%	98%	
COc1nc(NCCCN2CCN(CCCN)CC2)nc(OC)c1NC(=O)c1ccc(Cc2cc3c(cc2C)C(C)(C)OC3(C)C)o1 [Example D18, N-[2-({3-[4-(3-Aminopropyl)piperazin-1-yl]propyl}amino)-4,6-dimethoxypyrimidin-5-yl}-5-[(1,1,3,3,6-pentamethyl-1,3-dihydro-2-benzofuran-5-yl)methyl]-2-furamide]	82%	0.3 nM	0.97 nM	97%	74%	80%	84%	
